Data as given in US7022648B2, “Plant seeds treated with N,N′-substituted ureas” (Stoller Enterprises, Inc., priority 1996, dated 2006).
Where “and” joins values, the source holds several entries; their conditions need not be identical. Equal values may be shown once.

Key:
Assay type in all cases: in vivo
Corn [1] = assay: Preliminary greenhouse pot test, seeds soaked in diformylurea solution, root and shoot mass; conditions: seed soak 24 h, 30 days
Description: (§1) In a preliminary experiment to determine the agricultural value of the N,N′-diformylurea prepared above, a concentrate was prepared by mixing 200 grams diformylurea and 200 grams formic acid, adjusting the ph to about 5.5 by the addition of potassium hydroxide and adding sufficient water to make 1 liter. […] Low, medium and high dilution aqueous solutions were prepared by diluting, respectively, 0.8 grams, 8.0 grams and 40.0 grams of the concentrate per liter of final solution. […] The foregoing solutions were used to coat corn, soybean, cotton and rice seeds prior to planting. Coating was achieved by soaking the seeds in the foregoing solutions for about 24 hours. Sufficient solution was used to keep the seeds immersed. Control seeds were soaked in water for the same time. Untreated or control seeds, together with seeds treated by the low, medium and high dilution solutions, were planted in 1 gallon greenhouse pots. Six pots were used for each dilution or control with five seeds planted per pot. The plants were thinned to two plants per pot after emergence. The plants were watered and fertilized as required. After 30 days the plants were harvested and the roots and shoots examined. The roots and shoots were weighed separately and the root/shoot ratio determined. The treated plants were generally characterized by both greater root mass and shoot mass when compared to the controls. The root/shoot ratio for most of the treated plants was greater than that for the controls.

Cotton = assay: as above; conditions: seed soak 24 h, 30 days
Description: as §1

Rice [2] = assay: as above; conditions: seed soak 24 h, 30 days
Description: as §1

Soybean = assay: as above; conditions: seed soak 24 h, 30 days
Description: as §1

Corn [3] = assay: Greenhouse pot test, foliar treatment 0.01 M diformylurea; conditions: foliar treated, three leaf stage, 30 days
Description: (§2) Based upon the foregoing preliminary work, additional experiments to investigate the effect of diformylurea on other plant species was undertaken. These experiments were also designed to compare the effect of treating seeds as described above with foliar treatment. Wheat, corn and peanuts were selected for the next phase of this work. Diformylurea was prepared by reacting formic acid and urea at a molar ratio of 2:1 as described above. An aqueous solution containing diformylurea at a concentration of 0.01 M was prepared. For the seed treatment portion of the experiments, the seeds to be treated were soaked in the foregoing solution for about 24 hours before planting. The control seeds were again soaked in water for the same time. Both control and treated seeds were planted in 1 gallon greenhouse pots. Five seeds were planted in each pot. Each pot was thinned to two plants after germination. For the foliar treatment portion of the experiment, plants grown from untreated seeds were sprayed with a solution containing 0.01 M. diformylurea at the three leaf stage. All plants were watered and fertilized as required. Thirty days after planting, the plants were harvested and the roots and shoots examined. The mass of both the roots and shoots and the total mass of the plant in each pot were determined.

Peanuts = assay: as above; conditions: foliar treated, three leaf stage, 30 days
Description: as §2

Wheat = assay: as above; conditions: foliar treated, three leaf stage, 30 days
Description: as §2

Rice [4] = assay: Single application to rice at tillering, yield; conditions: 50 grams per acre at tillering
Text: The reaction products of the present invention, specifically N,N′-diformylurea, have been used to enhance the growth of plants. […] For example, a single application to rice at the rate of 50 grams per acre at tillering has produced a 25 percent increase in yield.

`O=CNC(=O)NC=O` [diformylurea, N,N′-diformylurea] was tested, and the “crown roots on plants grown from treated seeds” value (Corn [1]) was “crown roots were noticed”, the “Root/Shoot Ratio” value (Corn [1]; High dilution, 0.068 M) was 1.09 and the “Roots (gm)” value (Corn [1]; High dilution, 0.068 M) was 9.60 gm. The “Shoots (gm)” value (Corn [1]; High dilution, 0.068 M) was 8.80 gm, the “Total (gm)” value (Corn [1]; High dilution, 0.068 M) was 18.40 gm and the “Root/Shoot Ratio” value (Corn [1]; Low dilution, 0.0013 M) was 1.04. For the same compound, the “Roots (gm)” value (Corn [1]; Low dilution, 0.0013 M) was 9.80 gm, the “Shoots (gm)” value (Corn [1]; Low dilution, 0.0013 M) was 9.40 gm and the “Total (gm)” value (Corn [1]; Low dilution, 0.0013 M) was 19.20 gm. The “Root/Shoot Ratio” value (Corn [1]; Medium dilution, 0.013 M) was 1.08, the “Roots (gm)” value (Corn [1]; Medium dilution, 0.013 M) was 10.40 gm and the “Shoots (gm)” value (Corn [1]; Medium dilution, 0.013 M) was 9.60 gm. The “Total (gm)” value (Corn [1]; Medium dilution, 0.013 M) was 20.00 gm, the “Root/Shoot Ratio” value (Cotton; High dilution, 0.068 M) was 0.73 and the “Roots (gm)” value (Cotton; High dilution, 0.068 M) was 5.07 gm. The “Shoots (gm)” value (Cotton; High dilution, 0.068 M) was 6.90 gm, the “Total (gm)” value (Cotton; High dilution, 0.068 M) was 11.97 gm and the “Root/Shoot Ratio” value (Cotton; Low dilution, 0.0013 M) was 1.46. The “Roots (gm)” value (Cotton; Low dilution, 0.0013 M) was 7.85 gm, the “Shoots (gm)” value (Cotton; Low dilution, 0.0013 M) was 5.38 gm and the “Total (gm)” value (Cotton; Low dilution, 0.0013 M) was 13.23 gm. For the same compound, the “Root/Shoot Ratio” value (Cotton; Medium dilution, 0.013 M) was 1.08, the “Roots (gm)” value (Cotton; Medium dilution, 0.013 M) was 4.50 gm and the “Shoots (gm)” value (Cotton; Medium dilution, 0.013 M) was 5.25 gm. The “Total (gm)” value (Cotton; Medium dilution, 0.013 M) was 9.75 gm, the “crown roots on plants grown from treated seeds” value (Rice [2]) was “crown roots were noticed” and the “Root/Shoot Ratio” value (Rice [2]; High dilution, 0.068 M) was 2.10. The “Roots (gm)” value (Rice [2]; High dilution, 0.068 M) was 0.82 gm, the “Shoots (gm)” value (Rice [2]; High dilution, 0.068 M) was 0.39 gm and the “Total (gm)” value (Rice [2]; High dilution, 0.068 M) was 1.21 gm. For the same compound, the “Root/Shoot Ratio” value (Rice [2]; Low dilution, 0.0013 M) was 1.78, the “Roots (gm)” value (Rice [2]; Low dilution, 0.0013 M) was 0.61 gm and the “Shoots (gm)” value (Rice [2]; Low dilution, 0.0013 M) was 0.34 gm. For the same compound, the “Total (gm)” value (Rice [2]; Low dilution, 0.0013 M) was 0.95 gm, the “Root/Shoot Ratio” value (Rice [2]; Medium dilution, 0.013 M) was 1.86 and the “Roots (gm)” value (Rice [2]; Medium dilution, 0.013 M) was 3.07 gm. For the same compound, the “Shoots (gm)” value (Rice [2]; Medium dilution, 0.013 M) was 1.84 gm, the “Total (gm)” value (Rice [2]; Medium dilution, 0.013 M) was 4.91 gm and the “Root/Shoot Ratio” value (Soybean; Low dilution, 0.0013 M) was 0.93. The “Roots (gm)” value (Soybean; Low dilution, 0.0013 M) was 4.60 gm, the “Shoots (gm)” value (Soybean; Low dilution, 0.0013 M) was 4.90 gm and the “Total (gm)” value (Soybean; Low dilution, 0.0013 M) was 9.50 gm. The “Root/Shoot Ratio” value (Soybean; Medium dilution, 0.013 M) was 1.20, the “Roots (gm)” value (Soybean; Medium dilution, 0.013 M) was 4.90 gm and the “Shoots (gm)” value (Soybean; Medium dilution, 0.013 M) was 4.10 gm. The “Total (gm)” value (Soybean; Medium dilution, 0.013 M) was 9.00 gm, the “Percent Change v. Control, Roots” value (Corn [3]) was 11% and the “Percent Change v. Control, Shoots” value (Corn [3]) was 103%. For the same compound, the “Percent Change v. Control, Total” value (Corn [3]) was 46%, the “Root/Shoot Ratio” value (Corn [3]) was 0.90 and the “Roots (gm), Average” value (Corn [3]; average of samples) was 51.38 gm. For the same compound, the “Shoots (gm), Average” value (Corn [3]; average of samples) was 57.31 gm, the “Total (gm), Average” value (Corn [3]; average of samples) was 108.69 gm and the “Roots (gm)” value (Corn [3]; single sample (pot)) was 42.40 gm and 48.44 gm and 52.48 gm and 56.22 gm and 42.18 gm and 66.57 gm. The “Shoots (gm)” value (Corn [3]; single sample (pot)) was 61.80 gm and 46.17 gm and 50.59 gm and 61.12 gm and 67.57 gm and 56.61 gm, the “Total (gm)” value (Corn [3]; single sample (pot)) was 104.20 gm and 84.61 gm and 103.07 gm and 117.34 gm and 109.75 gm and 123.18 gm and the “Percent Change v. Control, Roots” value (Peanuts) was 92%. For the same compound, the “Percent Change v. Control, Shoots” value (Peanuts) was 108%, the “Percent Change v. Control, Total” value (Peanuts) was 100% and the “Root/Shoot Ratio” value (Peanuts) was 1.02. The “Roots (gm), Average” value (Peanuts; average of samples) was 32.74 gm, the “Shoots (gm), Average” value (Peanuts; average of samples) was 32.15 gm and the “Total (gm), Average” value (Peanuts; average of samples) was 64.89 gm. The “Roots (gm)” value (Peanuts; single sample (pot)) was 27.67 gm and 35.04 gm and 37.38 gm and 31.10 gm and 31.69 gm and 33.55 gm, the “Shoots (gm)” value (Peanuts; single sample (pot)) was 28.38 gm and 30.34 gm and 33.84 gm and 32.35 gm and 36.17 gm and 31.82 gm and the “Total (gm)” value (Peanuts; single sample (pot)) was 56.05 gm and 65.38 gm and 71.22 gm and 63.45 gm and 67.86 gm and 65.37 gm. For the same compound, the “Percent Change v. Control, Roots” value (Wheat) was 14%, the “Percent Change v. Control, Shoots” value (Wheat) was 108% and the “Percent Change v. Control, Total” value (Wheat) was 26%. For the same compound, the “Root/Shoot Ratio” value (Wheat) was 4.06, the “Roots (gm), Average” value (Wheat; average of samples) was 23.93 gm and the “Shoots (gm), Average” value (Wheat; average of samples) was 5.89 gm. For the same compound, the “Total (gm), Average” value (Wheat; average of samples) was 29.83 gm, the “Shoots (gm)” value (Wheat; single sample (pot)) was 7.48 gm and 7.53 gm and 4.44 gm and 4.62 gm and 4.00 gm and 7.28 gm and the increase in yield (Rice [4]) was 25%.
